According to a melting point compilation (Tetko et al.; mined from patent text by program, amines drawn as free bases though some values may be those of a salt):

| SMILES | melting point [°C] |
| --- | --- |
| NCCSc1ncccc1C(O)c1ccccc1 (stereo unspecified) | 118 to 120 |
| Cc1c(N)noc1C(F)(F)F | 34.5 to 36 |
| CSC(=N[N+](=O)[O-])NCc1ccccc1 | 77 to 80 |
| C#CCN(C)C(=O)NC | 68 to 69 |
| Cc1nc2ccc3cccnc3c2nc1C | 159 to 162 |
| CCOC(=O)c1cnc2ccc(C#N)cc2c1O | > 265 |
| NC1=NCC(COc2cccc(C(F)(F)F)c2)O1 (stereo unspecified) | 10 |
| CCOC(=O)c1c(C2CC2)nn(CC)c1Cc1ccc(-c2ccccc2-c2nnn(C(c3ccccc3)(c3ccccc3)c3ccccc3)n2)cc1 | 164 to 168 |
| O=C(O)CNC(=O)c1ccc(C(=O)NS(=O)(=O)c2ccccc2)cn1 | 190 to 191 |
| Cc1oc(-c2ccco2)nc1COc1ccc(COc2nn(Cc3ccccc3)cc2C(=O)O)cn1 | 151 to 152 |
| CCC1(C(=O)O)c2ccccc2Oc2ccccc21 | 175 to 176 |
| O=C(O)c1cccc(-c2ncc(O)cn2)c1 | 293 to 295 |
| N#Cc1nn(-c2c(Cl)cc(C(F)(F)F)cc2Cl)cc1I | 83 to 84 |
| CC(C)(C)NC(=O)c1ccc(Br)cc1 | 126 to 128 |
| N#CC(CC(=O)O)c1ccc(Cl)c(Cl)c1 (stereo unspecified) | 104 |
| O=c1[nH]c2sc3ccc(I)cc3c2[nH]c1=O | > 300 |
| COc1ccc(C(=O)Nc2ccc(F)cc2)cc1NC(=S)Nc1cccc(C(=O)O)c1 | 218 to 220 |
| NC(=S)NNc1ccc(Cl)cc1 | 200 to 201 |
| CN(C)c1ccc(C2CC3(C)C(O)CCC3C3CCC4=CC(=O)CCC4=C23)cc1 (stereo unspecified) | 166 to 167 |
| CC(C)(C#N)c1ccc(C(=O)CCCCl)cc1 | 79 to 80 |
| CN(C)C1(c2ccc(F)cc2)CCC2(CC1)NCCc1c2[nH]c2ccccc12 (stereo unspecified) | 249 to 250 |

Next, values leading:

| melting point [°C] | SMILES |
| --- | --- |
| 214 to 215 | CN1CCN(c2ncnc3oc(-c4ccc(N)cc4)c(-c4ccc(F)cc4)c23)CC1 |
| 204 to 205 | CCCCc1nc2cccc(C(=O)O)c2n1Cc1ccc(-c2ccccc2-c2n[nH]c(=O)o2)cc1 |
| 180 | C=Cc1ccc2c(NCc3ccc(NC(=O)C4CCN(Cc5ccccc5)CC4)cc3)nc(N(C)C)nc2c1 |
| 121 to 123 | CCCCOC(=O)CNC(=O)c1nc2ccc(Cl)cc2cc1OCc1ccccc1 |
| 187 to 188 | Nn1cc(C(=O)NCc2ccc(Cl)cc2)c(=O)c2cc(CCCO)ccc21 |
| 133 to 135 | COc1cc2c(cc1OC)CC(C(=O)O)C2 |
| 64 | CSc1cc(C(F)(F)F)ccc1C(=O)CC(=O)C1CC1 |
| 119 to 120 | Cc1ccoc1C(=O)Nc1ccc(-n2nc(C(F)(F)F)cc2C(F)(F)F)cc1 |
| 275 to 277 | CN(Cc1cccc2c1CN(C1CCC(=O)NC1=O)C2=O)C(=O)Nc1ccc(Cl)c(Cl)c1 (stereo unspecified) |
| 45 to 72 | CCCC1CCC(O)(c2ccc(-c3ccccc3)c(F)c2)CC1 (stereo unspecified) |
| 153 to 155 | CC(=O)Nc1cc(C(F)(F)F)ccc1N1CCc2ccccc21 |
| 222 to 224 | C=CCc1ccc2oc(C(=O)O)cc(=O)c2c1O |
| 120 to 121 | CO/C=C1/C(=O)NC(=O)c2ccc(I)cc21 |
| 82 to 85 | CCN1CC(=O)N(c2ccccc2C(F)(F)F)C1=S |
| 174 to 177 | O=C(Nc1cccc(F)c1)C12CC3CC(CC(C3)C1)C2 |
| 169 to 170 | CC(=O)NC[C@H]1CN(c2ccc(N3CCN(CCN4CCCCC4)CC3)c(F)c2)C(=O)O1 |
| 179 to 182 | CC(C)(C)c1ccc(C(O)CCCN2CCC(C(O)(c3ccccc3)c3ccc(C(C)(C)C)cc3)CC2)cc1 (stereo unspecified) |
| 173 to 180 | CCOc1cc(CN2CCN(c3ccc(C(=O)NC)cc3C)CC2)cc2c1OC(C)C(=O)N2 (stereo unspecified) |
| 158 to 160 | O=C(O)CCCCN1C(=O)c2cccc([N+](=O)[O-])c2C1=O |
| 94 to 95 | COC(=O)C1=C(C)N(C)C(C)C(C(=O)OC)=C1c1ccc(C(F)(F)F)cc1 (stereo unspecified) |
